Patent US20240309365A1, “MODULATING TRANSCRIPTIONAL CONDENSATES” (Whitehead Institute for Biomedical Research, priority 2020, published 2024)
Numbered stars: 1 amine (or outer) side, 2 acyl side, 3 side chain; on linkers, the order of the positions; unused ones are H or OH. Bridge positions count the residues as written; N and C are the ends. Square brackets hold non-standard residues; d marks the D form. Peptide text beside a SMILES is read from it. I, II: the chains in the order shown. Actinocin(9to1) = Cc1c2oc3c(C)ccc(C(=O)[*:1])c3nc-2c(C(=O)[*:2])c(N)c1=O; NMeV = CN[C@H](C(=O)O)C(C)C; Sar = CNCC(=O)O

How the values were obtained:
[1] = tested on: Med1-GFP condensates in mESCs; assay: Condensate size in Med1-GFP mESCs after transcription inhibition; assay type: cell-based, mouse; conditions: 30 minutes; 100 μM DRB or 1 μM Actinomycin-D; 3D super-resolution microscopy
Protocol: (§1) For small molecule inhibition experiments, cells were treated with 100 μM DRB (Sigma), or 1 μM Actinomycin-D (Sigma) in 2i media (detailed above) for 30 minutes, then imaged. For wash-out experiments, media was replaced with fresh 2i media and cells were allowed to recover for 1 hour, then the cells were imaged.
Cells with endogenously-tagged Med1-GFP (Sabari et al., 2018) were plated on glass-bottom dishes (Mattek) coated with poly-L-ornithine (Sigma) and laminin (ThermoFisher). Mock (DMSO) and treated cells were imaged on a LSM 880 Confocal Microscope with Airyscan to obtain super-resolution z-stacks for at least 8 different fields containing multiple cells. For quantification, a manual threshold was applied equally across all conditions to remove background, and the size of Med1-GFP puncta was quantified in 3D using the 3D object counter plugin (Fiji/ImageJ).

[2] = tested on: Med19 condensates in mESCs; assay: Condensate lifetime in Med19-Halo mESCs by tcPALM; assay type: cell-based, mouse
Protocol: as §1
HaloTag was endogenously knocked into 5′-end of Med19 via homology-directed repair (HDR) in mouse embryonic stem cells (R1 mESCs). Three single-guide RNAs (sgRNAs) targeting+/−100 bps from the start codons of Med19 gene were designed using the web-based CRISPR Design tool (http://crispr.mit.edu) and integrated into a Streptococcus pyogenes Cas9 vector (Addgene #62988) for standard CRISPR/Cas9 editing. Single positive colonies were sorted by fluorescence-activated cell sorting (FACS) and validated under the microscope. […]
Photo-activation localization microscopy (PALM) imaging was performed using a Nikon Eclipse Ti microscope with a 100× oil immersion objective (NA 1.40) (Nikon, Tokyo, Japan). […] Med19-Halo cluster lifetimes were calculated as previously described using the qSR software (dark time tolerance=20 frames, min cluster size=50) (Andrews et al., 2018), and a cumulative distribution was generated using Prism software (GraphPad).

[3] = tested on: reconstituted mammalian transcription system (Pol II, general transcription factors, Mediator, Gal4); assay: Reconstituted in vitro transcription assay (droplets and qRT-PCR output); assay type: biochemical; conditions: 2 mM NTPs, 200 mM NaCl, 500 nM heparin, spermine at concentrations predicted to balance charge; for partitioning of template DNA into droplets: Cy3-labeled template DNA; for droplet area: added to the transcription reaction; for transcription (levels of RNA synthesis): qRT-PCR of template-derived RNA
Protocol: For the size analysis of droplets formed in the reconstituted transcription assays (FIG. 3), brightfield images were subtracted by a median-filtered image (px=21), and droplets were manually segmented and their areas measured using ImageJ.
The reconstituted in vitro transcription by RNA polymerase II was performed as previously described (Flores et al., 1992; LeRoy et al., 2008, 2019; Orphanides et al., 1998) with some modifications. A 1000 bp template DNA (unlabeled or Cy-3 labeled at 3′ end) containing adenovirus major late promoter, five Gal4 binding sites, TATA-box sequence and 561 bp from eGFP sequence was used. First, pre-initiation complex was assembled at RT for 15 min by mixing the following components: 50 nM RNA polymerase II enriched for hypophosphorylated CTD, 50 nM general transcription factors (TFIIA-B-D-E-F-H), and 5.75 nM template DNA, in a buffer containing 10 mM HEPES pH 7.5, 65 mM NaCl, 6.25 mM MgCl2, and 6.25 mM Sodium butyrate. Next, 10 nM Mediator complex and 10 nM GAL4 (Gal4 DNA binding domain fused to activation domain of VP16) were added to the reaction. Last, nucleotide mix containing 0.375 mM ATP, CTP, UTP, GTP (Invitrogen), 0.01 U RNase Inhibitor (Invitrogen), 1.25% PEG-8000 were added together with one of the following: a) various amounts of purified exogenous Pou5f1 RNA (0-500 nM) b) spermine (Sigma, S4264) c) extra NTPs (Invitrogen) d) extra NaCl e) heparin (Sigma, H3393). The reaction was incubated at 30° C. for 2 hr. RNA isolation was performed using RNeasy kit (Qiagen) by including a spike-in RNA control and an RNA carrier. Purified RNAs were treated with ezDNase (Invitrogen) for 30 min at 37° C. to eliminate the template DNA. Reverse transcription was performed using Superscript IV (Invitrogen) and qPCR was performed with SYBR Green Real Time PCR master mix (Invitrogen) to quantify the template derived transcriptional output. The Ct values of the reactions were normalized to the spike-in RNA control. The concentration of template derived transcriptional output was calculated by using a standard curve of qRT-PCR Ct values generated by known amounts of serially diluted GFP RNA.
To visualize the droplets formed in the reconstituted transcription assay, using a micropipette (2-20 μL), 5 μL of the reactions were loaded onto a homemade chamber, which was prepared by attaching coverslips to a glass slide by parallel strips of double-sided tape (Sabari et al., 2018). After the droplets were settled on the glass coverslip, the images were collected by using RPI Spinning Disk confocal microscope with a 100× objective. To account for camera artifacts in the images, brightfield Images of droplets from reconstituted assays were subjected to a white tophat filter with a disk element radius of 21 using the MorphoLib plugin in ImageJ, then a Gaussian filter (sigma=1) was applied.

[4] = target: T1, MED1-IDR (Homo sapiens, UniProt Q15648); assay: In vitro droplet assay with MED1-IDR-GFP; assay type: biochemical; conditions: alternative polyanions instead of RNA
T1 construct: Amino acids included; 6xHIS; made in house; host or cells: LOBSTR cells (E. coli), pET plasmid, Ni-NTA purification
T1 sequence (Q15648 948-1573): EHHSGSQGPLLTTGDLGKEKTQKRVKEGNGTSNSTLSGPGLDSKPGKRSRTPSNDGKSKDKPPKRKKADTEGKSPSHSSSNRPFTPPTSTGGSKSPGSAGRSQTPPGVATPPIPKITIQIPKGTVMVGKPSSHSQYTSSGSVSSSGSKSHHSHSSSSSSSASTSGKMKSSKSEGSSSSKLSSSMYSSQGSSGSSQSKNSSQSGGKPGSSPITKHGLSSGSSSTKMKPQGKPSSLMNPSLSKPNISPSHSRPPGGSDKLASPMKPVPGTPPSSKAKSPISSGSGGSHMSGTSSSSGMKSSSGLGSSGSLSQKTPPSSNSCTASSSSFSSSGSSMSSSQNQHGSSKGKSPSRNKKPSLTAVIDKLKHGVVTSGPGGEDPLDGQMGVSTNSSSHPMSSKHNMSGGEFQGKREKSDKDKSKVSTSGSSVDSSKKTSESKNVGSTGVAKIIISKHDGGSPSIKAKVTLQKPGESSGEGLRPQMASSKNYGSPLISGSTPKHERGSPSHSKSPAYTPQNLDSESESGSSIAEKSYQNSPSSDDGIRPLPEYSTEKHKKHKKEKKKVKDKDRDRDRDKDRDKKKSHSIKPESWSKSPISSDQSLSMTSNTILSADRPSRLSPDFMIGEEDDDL
Protocol: Charge-balance calculations were performed (FIGS. 2, 9, 10 and 11) employing the following method. Net protein charge per molecule was calculated as Cp=#(R, K)−#(D, E) for the relevant sequence including the GFP tag. RNA charge per molecule was calculated as Cr=−(# […]), assuming an approximate charge of −1 per nucleotide (Lin et al., 2019). Next, the charge balance ratio was computed at a particular RNA and protein concentration as:
The effective concentration of MED1-IDR in the assays was 1000 nM. The results were not quantitatively affected by inclusion/exclusion of the partial charge on Histidine residues, partly due to their low frequency on the protein sequences. For Heparin, a charge of roughly −3 per monomer was employed (Lin et al., 2020) and for single-stranded DNA, a charge of −1 per nt was employed. The fit is quantified by calculating Pearson correlation coefficient (r) was calculated between the median droplet partition value at different concentrations and the relevant charge-balance ratios and reported in FIGS. 2, 9, 10, and 11. A higher correlation implies that experimental data follow a similar qualitative trend as the estimated charge-balance curves. The code for performing these calculations are available at: […]

[5] = tested on: T2, Mediator complex; assay: In vitro droplet assay with purified Mediator complex; assay type: biochemical, human; conditions: 6-400 nM RNA added to 200 nM purified Mediator complex
T2 construct: Purification of Human Mediator Complex from HeLa Nuclear Extract; endogenous in cells; host or cells: HeLa nuclear extract, multi-step column purification
Protocol: HeLa nuclear protein extract (4 g) was prepared as described in (Dignam et al., 1983). Nuclear extract was dialyzed against BC100: BC buffer, pH 7.5+100 mM KCl (20 mM Tris-HCl, 20 mM B-Mercaptoethanol, 0.2 mM PMSF, 0.2 mM EDTA, 10% glycerol (v/v) and 100 mM KCl). The extract was fractionated on a phosphocellulose column (P11) with BC buffer containing 0.1, 0.3, 0.5 and 1M KCl. The Mediator complex eluted in the 0.5M KCL (BC500) fraction. This fraction was dialyzed against BC100 and loaded on a DEAE Cellulose column and sequentially fractionated with BC buffer containing 0.1, 0.3 and 0.5M KCl. […] This fraction was then directly loaded onto a DEAE-5 PW column (TSK) and eluted with a linear KCl gradient from 0.1 to 1M KCl in BC buffer. The Mediator complex eluted between 0.4 and 0.6M KCl. The fractions containing Mediator were pooled and dialyzed against BD700: BD buffer, (20 mM Hepes pH 7.5, 20 mM β-Mercaptoethanol, 0.2 mM PMSF, 0.2 mM EDTA, 10% glycerol, and 700 mM (NH4)2SO4). This fraction was then loaded onto a Phenyl-Sepharose Hydrophobic Interaction Chromatography (HIC) column and eluted with a linear reverse gradient from 0.7 to 0.025M (NH4)2SO4 in BD buffer. The Mediator complex eluted between 0.3 and 0.1M (NH4)2SO4. […]

With `Cc1c2oc3c(C)ccc(C(=O)N[C@@H]4C(=O)N[C@H](C(C)C)C(=O)N5CCC[C@H]5C(=O)N(C)CC(=O)N(C)[C@@H](C(C)C)C(=O)O[C@@H]4C)c3nc-2c(C(=O)N[C@@H]2C(=O)N[C@H](C(C)C)C(=O)N3CCC[C@H]3C(=O)N(C)CC(=O)N(C)[C@@H](C(C)C)C(=O)O[C@@H]2C)c(N)c1=O` [Actinomycin-D] (I: T[dV]P[Sar][NMeV] / II: T[dV]P[Sar][NMeV]; ester I:1-I:C, II:1-II:C; linker I:N-II:N via Actinocin(9to1)) the “increase in volume of Med1-GFP condensates” value [1] was roughly 2 fold.

`OC[C@H]1O[C@@H](n2cnc3cc(Cl)c(Cl)cc32)[C@H](O)[C@@H]1O` [DRB] was tested, and the “increase in volume of Med1-GFP condensates” value [1] was roughly 2 fold, the “lifetime of Med19 condensates versus mock-treated cells” value ([2]; 100 μM DRB, 30 minutes, tcPALM) was “significantly longer lifetimes” and the “lifetime of Med19 condensates after wash with fresh media” value ([2]; DRB-treated cells washed, 1 hour recovery) was “recovered to those of the mock-treated condition”.

In the case of `[Cl-].[Na+]` [NaCl], the “partitioning of template DNA into droplets” value [3] is reported as “reductions”, the droplet area [3] is reported as “reductions” and the “transcription (levels of RNA synthesis)” value [3] is reported as “reductions”.

With `NCCCNCCCCNCCCN` [spermine] the “partitioning of template DNA into droplets” value [3] was “increased”, the droplet area [3] was “increased” and the “transcription (levels of RNA synthesis)” value [3] was “increased”.

In the case of heparin, the “fit of MED1-IDR partitioning to the charge balance model” value [4] is reported as “charge balance model also held”, the “partitioning of template DNA into droplets” value [3] is reported as “reductions” and the droplet area [3] is reported as “reductions”. For the same molecule, the “transcription (levels of RNA synthesis)” value [3] was “reductions”.

B1: Trim28 enhancer RNA: enhancer RNA transcribed from the Trim28 super-enhancer, 594 nt, SEQ ID NO: 46 (nucleic acid)
chain: AAATCTTGGAGAGAGTAGGACCTGAGCTGTTTCCTATTTCTACTACTTCCATAGACATCCATGGGTCTCCTTTGGTTCTTACCTTAAACTGCAGTTCTAGAGGCTCTTCTGGGGTTGTAAACTGCCCTTCCCCAACTCAGGAGCTCCCATTCCCTCCCCTTCCTAAACTGGCCCTACTTGTTCGCTCTACTTTATCTTGCCAGGGGTTGTAACAGCCTCCAATCTGTCTTGGATCAGGAAGCAGTTTCCATGGGGTATTTTAAGTGTAAGTTCCCCGGTGAAATGGAAACAAAAAGAATAAGGTATTCTGGGGACAGTGTAGGCCCACTAGGGTGTAGCTTGTTTTGTAAACACAGGACCTGAGTTTTGGACTTTGCCCTGGATTGTACCTGTCCCAGTGGGTTACCTTAGATGACACTAGCTTCATAATGCAAGAGGAGGTTAAGATGCTGGCTAGCGTTACCCACTTTGAAGGTACTGGAAAAGGAAGACCTGATTTACCCAAAAGAGGGAGATCTCTGTGCTTCTACCGCTTTAATTTTTTTTTTCTTTTTTTAAATATTTTTGCAGGACTGGTCACTGTAACTTTTTCCC
modifications: 47
With B1 the “RNA concentration at which droplet sizes peaked” value [5] was 100 nM and the “effect on the size of Mediator/RNA droplets” value [5] was “dose-dependent effect”.

B2: ssDNA: single-stranded DNA, 117 nt, SEQ ID NO: 51, alternative polyanion (nucleic acid)
DNA: GGTTCTGCCGCAGGTGGATCCGGTATGTCCACCGCCACGACAGTCGCCCCCGCGGGGATCCCGGCGACCCCGGGCCCTGTGAACCCACCCCCCCCGGAGGTCTCCAACCCCAGCAAG
modifications: DNA, backbone and methylation of C not given here
B2 was tested, and the “fit of MED1-IDR partitioning to the charge balance model” value [4] was “charge balance model also held”.
